Where “and” joins values, the source holds several entries; their conditions need not be identical. Equal entries are not always repeated.

What all share (assay type): functional, organism-based
Common to all, as to settings: Mus musculus

Experiment [1] relates to L1210. Briefly: Compound was tested for antitumor activity against L1210 Leukemia in mice at 25 mg/kg dose upon intraperitoneal administration: Toxic. Also noted: dose 25 mg/kg.
In experiment [2] the test system is L1210. Briefly: Compound was tested for antitumor activity against L1210 Leukemia in mice at 50 mg/kg dose upon intraperitoneal administration: Toxic. On the set-up: dose 50 mg/kg.
Experiment [3] has as its system L1210. Briefly: Compound was tested for antitumor activity against L1210 Leukemia in mice at 100 mg/kg dose upon intraperitoneal administration. On the set-up: dose 100 mg/kg.
In experiment [4] the test system is L1210. Briefly: Compound was tested for antitumor activity against L1210 Leukemia in mice at 12.5 mg/kg dose upon intraperitoneal administration. On the set-up: dose 12.5 mg/kg.
The test system of experiment [5] is L1210. Briefly: Compound was tested for antitumor activity against L1210 Leukemia in mice at 25 mg/kg dose upon intraperitoneal administration. Also noted: dose 25 mg/kg.
The test system of experiment [6] is L1210. Put plainly: Compound was tested for antitumor activity against L1210 Leukemia in mice at 6.25 mg/kg dose upon intraperitoneal administration. Also noted: dose 6.25 mg/kg.
For experiment [7], the system named is L1210. Put plainly: Compound was tested for antitumor activity against L1210 Leukemia in mice at 12.5 mg/kg dose upon intraperitoneal administration: Toxic. On the set-up: dose 12.5 mg/kg.
Experiment [8] concerns L1210. Briefly: Compound was tested for antitumor activity against L1210 Leukemia in mice at 1.5 mg/kg dose upon intraperitoneal administration. Also noted: dose 1.5 mg/kg.
In experiment [9] the test system is L1210. Briefly: Compound was tested for antitumor activity against L1210 Leukemia in mice at 3.1 mg/kg dose upon intraperitoneal administration. On the set-up: dose 3.1 mg/kg.
The test system of experiment [10] is L1210. Put plainly: Compound was tested for antitumor activity against L1210 Leukemia in mice at 50 mg/kg dose upon intraperitoneal administration. Also noted: dose 50 mg/kg.

What is called T/C is the result in the treated group divided by that in the control group, in per cent. As to “(2R,3R)-2,3-dihydroxy-1,4-diaminobutane Platinum (II) complex”, the Activity result in the experiment on L1210 [1] and in the experiment on L1210 [2] was “Toxic” throughout. Besides, the T/C in the experiment on L1210 [3] is 195%; in the experiment with L1210 [4], 118% and 131%; in the experiment on L1210 [5], 148%; in the experiment on L1210 [6], 125% and 135%.

On to CISPLATIN, for which the Activity result with L1210 [7] and with L1210 [1] was “Toxic” in each case. For the same substance, the T/C with L1210 [8] turned out to be 142%; with L1210 [9], 167%; with L1210 [6] it was 82%.

For CARBOPLATIN, the T/C with L1210 [3] turned out to be 197%; in the experiment with L1210 [4] it was 125%; in the experiment on L1210 [5], 148%; with L1210 [10], 196%; with L1210 [6], 107%.

The values above are taken from ChEMBL document CHEMBL1128995, “Synthesis and antitumor activity of (2R,3R)-2,3-dihydroxy- and -2,3-dialkoxy-1,4-diaminobutane platinum(II) complexes” (Bioorg Med Chem Lett, 1996).
